We go through 23 molecules from patent publication US6172085A (priority 1996, dated 2001).

Usually IC50 stands for the concentration needed to halve the response being measured. A lower IC50 goes with greater potency.

Structures are written as SMILES. Where a name gives a salt, the structure may show the parent alone.

The subject of this test is sodium channel. It is filed as binding, Wistar rats. To be noted: rat cerebral cortex membrane, 5 nM [^3 H]batracotoxinin A20-α-benzoate, 1 μM tetrodotoxin, 100 μg/mL scorpion toxin, 37° C., 1 hour.
`Cc1c(C)c2c(c(C)c1N)CC(C)(CN1CCN(CCc3ccccc3)CC1)O2` (centres unmarked) [Example 27, 2,3-Dihydro-2,4,6,7-tetramethyl-2-[[4-(2-phenylethyl)-1-piperazinyl]methyl]-5-benzofuranamine] displayed an IC50 of 200 nM.

`COc1ccc(CN2CCN(CC3(C)Cc4c(C)c(N)c(C)c(C)c4O3)CC2)cc1` (centres unmarked) [Example 29, 2,3-Dihydro-2-[[4-(4-methoxybenzyl)-1-piperazinyl]methyl]-2,4,6,7-tetramethyl-5-benzofuranamine trihydrochloride] showed an IC50 of 210 nM.

For the molecule `Cc1c(C)c2c(c(C)c1N)CC(C)(CN1CCC(COC(c3ccccc3)c3ccccc3)CC1)O2` (centres unmarked) [Example 24, 2-[[4-[(Diphenylmethoxy)methyl]-1-piperidinyl]methyl]-2,3-dihydro-2,4,6,7-tetramethyl-5-benzofuranamine oxalate], half-maximal inhibition (IC50) was put at 410 nM.

As to `Cc1c(C)c2c(c(C)c1N)CC(C)(CN1CCN(Cc3ccccc3)CC1)O2` (centres unmarked) [Example 6, 2-[(4-Benzyl-1-piperazinyl)methyl]-2,3-dihydro-2,4,6,7-tetramethyl-5-benzofuranamine trihydrochloride], the IC50 was found to be 790 nM.

The molecule `Cc1c(C)c2c(c(C)c1N)CC(C)(CN1CCN(Cc3ccc4c(c3)OCO4)CC1)O2` (centres unmarked) [Example 4, 2,3-Dihydro-2,4,6,7-tetramethyl-2-[[4-[(3,4-methylenedioxyphenyl)methyl]-1-piperazinyl]methyl]-5-benzofuranamine trihydrochloride] yielded an IC50 of 280 nM. Against the preceding molecule, the IC50 is about 2.8-fold lower.

`Cc1c(C)c2c(c(C)c1N)CC(C)(CN1CCC(CCCCc3ccccc3)CC1)O2` (centres unmarked) [Example 3, 2,3-Dihydro-2,4,6,7-tetramethyl-2-[[4-(4-phenylbutyl)-1-piperidinyl]methyl]-5-benzofuranamine] returned an IC50 of 260 nM. The IC50 values of the last two molecules are within 1.5-fold of each other.

In turn, `Cc1c(C)c2c(c(C)c1N)CC(C)(CN1CCC(CCc3ccccc3)CC1)O2` (centres unmarked) [Example 1, 2,3-Dihydro-2,4,6,7-tetramethyl-2-[[4-(2-phenylethyl)-1-piperidinyl]methyl]-5-benzofuranamine] returned an IC50 of 220 nM.

In the case of `Cc1c(C)c2c(c(C)c1N)CC(C)(CN1CCC(CCOC(c3ccccc3)c3ccccc3)CC1)O2` (centres unmarked) [Example 25, 2-[[4-[2-(Diphenylmethoxy)ethyl]-1-piperidinyl]methyl]-2,3-dihydro-2,4,6,7-tetramethyl-5-benzofuranamine oxalate], the IC50 turned out to be 340 nM.

`Cc1c(C)c2c(c(C)c1N)CC(C)(CN1CCN(Cc3ccc(Cl)cc3)CC1)O2` (centres unmarked) [Example 33, 2-[[4-(4-Chlorobenzyl)-1-piperazinyl]methyl]-2,3-dihydro-2,4,6,7-tetramethyl-5-benzofuranamine trihydrochloride] showed an IC50 of 310 nM.

`Cc1c(C)c2c(c(C)c1N)CC(C)(CN1CCC(NC(c3ccccc3)c3ccccc3)CC1)O2` (centres unmarked) [Example 40, 1-[(5-Amino-2,3-dihydro-2,4,6,7-tetramethylbenzofuran-2-yl)methyl]-N-(diphenylmethyl)-4-piperidinamine trihydrochloride]: the IC50 was 160 nM.

With `Cc1c(C)c2c(c(C)c1N)CC(C)(CN1CCC(CCCOC(c3ccccc3)c3ccccc3)CC1)O2` (centres unmarked) [Example 26, 2-[[4-[3-(Diphenylmethoxy)propyl]-1-piperidinyl]methyl]-2,3-dihydro-2,4,6,7-tetramethyl-5-benzofuranamine oxalate], the IC50 was 220 nM.

The molecule `COc1ccc(CN2CCN(CC3(C)Cc4c(C)c(N)c(C)c(C)c4O3)CC2)cc1OC` (centres unmarked) [Example 32, 2-[[4-(3,4-Dimethoxybenzyl)-1-piperazinyl]methyl]-2,3-dihydro-2,4,6,7-tetramethyl-5-benzofuranamine trihydrochloride] displayed an IC50 of 250 nM.

Molecule `Cc1ccc(CN2CCN(CC3(C)Cc4c(C)c(N)c(C)c(C)c4O3)CC2)cc1` (centres unmarked) [Example 34, 2,3-Dihydro-2,4,6,7-tetramethyl-2-[[4-(4-methylbenzyl)-1-piperazinyl]methyl]-5-benzofuranamine trihydrochloride] displayed an IC50 of 420 nM.

Take `Cc1c(C)c2c(c(C)c1N)CC(C)(CN1CCC(CCNCCC(c3ccccc3)c3ccccc3)CC1)O2` (centres unmarked) [Example 42, 1-[(5-Amino-2,3-dihydro-2,4,6,7-tetramethylbenzofuran-2-yl)methyl]-N-(3,3-diphenylpropyl)-4-piperidineethylamine trihydrochloride]: the midpoint of inhibition, the IC50, lay at 160 nM. This IC50 lies about 2.6-fold lower than the previous one.

`Cc1c(C)c2c(c(C)c1N)CC(C)(CN1CCC(CCCc3ccccc3)CC1)O2` (centres unmarked) [Example 2, 2,3-Dihydro-2,4,6,7-tetramethyl-2-[[4-(3-phenylpropyl)-1-piperidinyl]methyl]-5-benzofuranamine]: the IC50 was determined as 280 nM.

For the molecule `COc1ccccc1CN1CCN(CC2(C)Cc3c(C)c(N)c(C)c(C)c3O2)CC1` (centres unmarked) [Example 31, 2,3-Dihydro-2-[[4-(2-methoxybenzyl)-1-piperazinyl]methyl]-2,4,6,7-tetramethyl-5-benzofuranamine trihydrochloride], 490 nM corresponded to half-maximal inhibition (IC50).

`Cc1c(C)c2c(c(C)c1N)CC(C)(CN1CCC(CCNC(c3ccccc3)c3ccccc3)CC1)O2` (centres unmarked) [Example 41, 1[(5-Amino-2,3-dihydro-2,4,6,7-tetramethylbenzofuran-2-yl)methyl]-N-(diphenylmethyl)-4-piperidineethylamine trihydrochloride] yielded an IC50 of 140 nM.

The molecule `Cc1c(C)c2c(c(C)c1N)CC(C)(CN1CCc3ccccc3CC1)O2` (centres unmarked) [Reference Example 10, 2,3-Dihydro-2,4,6,7-tetramethyl-2-[(2,3,4,5-tetrahydro-1H-3-benzazepin-3-yl)methyl]-5-benzofuranamine dihydrochloride] yielded a 50% inhibitory concentration (IC50) of 470 nM.

For the molecule `COc1cccc(CN2CCN(CC3(C)Cc4c(C)c(N)c(C)c(C)c4O3)CC2)c1` (centres unmarked) [Example 30, 2,3-Dihydro-2-[[4-(3-methoxybenzyl)-1-piperazinyl]methyl]-2,4,6,7-tetramethyl-5-benzofuranamine trihydrochloride], the IC50 amounted to 390 nM.

The molecule `Cc1c(C)c2c(c(C)c1N)CC(C)(CN1CCC(Cc3ccccc3)CC1)O2` (centres unmarked) [Example 5, 2-[(4-Benzyl-1-piperidinyl)methyl]-2,3-dihydro-2,4,6,7-tetramethyl-5-benzofuranamine] came in with an IC50 of 520 nM.

In turn, `Cc1c(C)c2c(c(C)c1N)CC(C)(CN1CCC(OC(c3ccccc3)c3ccccc3)CC1)O2` (centres unmarked) [Example 17, 2-[[4-(Diphenylmethoxy)-1-piperidinyl]methyl]-2,3-dihydro-2,4,6,7-tetramethyl-5-benzofuranamine oxalate] registered an IC50 of 320 nM.

`CCNc1c(C)c(C)c2c(c1C)CC(C)(CN1CCC(c3ccccc3)CC1)O2` (centres unmarked) [Reference Example 8, N-ethyl-2,3-dihydro-2,4,6,7-tetramethyl-2-[(4-phenyl-1-piperidinyl)methyl]-5-benzofuranamine] had an IC50 of 640 nM.

Regarding `Cc1c(C)c2c(c(C)c1N)CC(C)(CN1CCC(OC(c3ccc(F)cc3)c3ccc(F)cc3)CC1)O2` (centres unmarked) [Example 28, 2-[[4-[Bis(4-fluorophenyl)methoxy]-1-piperidinyl]methyl]-2,3-dihydro-2,4,6,7-tetramethyl-5-benzofuranamine oxalate], the IC50 is 220 nM. This IC50 is about 2.9-fold lower than that of the molecule before.
